Test results published in patent publication US20140058103A1, “Inhibitors of PI3K-Delta and Methods of Their Use and Manufacture” (Exelixis, Inc., priority 2010, published 2014).

Target: PI3K delta (Homo sapiens, UniProt O00329)
Test: Luciferase-coupled chemiluminescence kinase assay (ATP consumption, KinaseGlo)
Assay type: biochemical
Method in brief: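 Compound, kinase and ATP (≤ KM) reacted 2 h at ambient temperature, then remaining ATP quantified with luciferase-luciferin (KinaseGlo) luminescence as percent consumed.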

Sequence of PI3K delta (O00329 whole entry): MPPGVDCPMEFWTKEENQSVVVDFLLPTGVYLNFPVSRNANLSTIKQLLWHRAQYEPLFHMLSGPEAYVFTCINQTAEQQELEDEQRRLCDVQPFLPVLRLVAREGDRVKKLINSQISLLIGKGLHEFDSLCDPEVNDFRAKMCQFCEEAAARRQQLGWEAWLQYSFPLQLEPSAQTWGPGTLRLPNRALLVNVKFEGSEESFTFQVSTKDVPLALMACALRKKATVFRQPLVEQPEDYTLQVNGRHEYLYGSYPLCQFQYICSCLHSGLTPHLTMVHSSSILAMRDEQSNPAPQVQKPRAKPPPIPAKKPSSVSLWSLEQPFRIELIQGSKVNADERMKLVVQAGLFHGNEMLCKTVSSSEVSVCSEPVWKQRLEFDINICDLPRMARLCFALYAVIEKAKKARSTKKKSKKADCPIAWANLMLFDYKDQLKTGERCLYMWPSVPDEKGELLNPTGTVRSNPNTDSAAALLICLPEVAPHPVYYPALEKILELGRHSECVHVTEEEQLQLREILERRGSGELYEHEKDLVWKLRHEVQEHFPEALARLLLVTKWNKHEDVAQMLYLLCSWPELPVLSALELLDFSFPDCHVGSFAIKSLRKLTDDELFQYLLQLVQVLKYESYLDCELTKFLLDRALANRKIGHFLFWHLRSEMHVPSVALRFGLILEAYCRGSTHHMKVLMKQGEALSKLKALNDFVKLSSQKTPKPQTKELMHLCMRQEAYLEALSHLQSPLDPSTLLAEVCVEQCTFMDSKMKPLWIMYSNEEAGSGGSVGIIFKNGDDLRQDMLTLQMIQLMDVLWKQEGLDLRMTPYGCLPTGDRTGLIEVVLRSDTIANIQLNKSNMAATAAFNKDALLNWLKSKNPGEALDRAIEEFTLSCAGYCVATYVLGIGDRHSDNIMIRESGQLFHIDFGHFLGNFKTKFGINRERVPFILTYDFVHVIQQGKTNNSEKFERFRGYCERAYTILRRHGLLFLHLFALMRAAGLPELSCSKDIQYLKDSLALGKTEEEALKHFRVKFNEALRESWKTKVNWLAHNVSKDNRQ
Sequence of PI3K delta (P27986 whole entry partner): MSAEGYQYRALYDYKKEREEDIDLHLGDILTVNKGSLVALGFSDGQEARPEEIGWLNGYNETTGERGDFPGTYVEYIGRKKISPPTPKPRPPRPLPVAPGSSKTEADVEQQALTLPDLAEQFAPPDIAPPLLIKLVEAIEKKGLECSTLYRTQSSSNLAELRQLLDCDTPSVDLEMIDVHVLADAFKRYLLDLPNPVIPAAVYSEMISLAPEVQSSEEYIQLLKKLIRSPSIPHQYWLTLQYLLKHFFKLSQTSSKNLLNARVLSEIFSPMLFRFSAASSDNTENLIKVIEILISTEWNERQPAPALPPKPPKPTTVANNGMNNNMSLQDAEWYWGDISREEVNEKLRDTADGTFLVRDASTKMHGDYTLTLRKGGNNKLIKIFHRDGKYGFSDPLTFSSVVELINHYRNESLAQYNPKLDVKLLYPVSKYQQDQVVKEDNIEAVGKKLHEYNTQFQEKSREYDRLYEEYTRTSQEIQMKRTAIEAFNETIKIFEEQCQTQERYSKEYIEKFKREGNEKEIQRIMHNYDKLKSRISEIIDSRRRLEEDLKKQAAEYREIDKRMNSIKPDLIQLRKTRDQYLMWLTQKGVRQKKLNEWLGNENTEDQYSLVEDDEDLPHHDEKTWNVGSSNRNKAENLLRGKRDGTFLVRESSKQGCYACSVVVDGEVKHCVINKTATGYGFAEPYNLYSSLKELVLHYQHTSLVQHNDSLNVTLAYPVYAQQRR

IC50 [nM]	SMILES
500 to 1500	Cn1c(C(=O)NCC2CC2)nc2c(N3CCC4(CC3)Nc3ccccc3NC4=O)ncnc21 [Compound 249, N-(cyclopropylmethyl)-9-methyl-6-(3′-oxo-3′,4′-dihydro-1H,1′H-spiro[piperidine-4,2′-quinoxalin]-1-yl)-9H-purine-8-carboxamide]
500 to 1500	Cn1c(C(=O)NCC2CC2)nc2c(N3CCC4(C3)C(=O)Nc3ccccc34)ncnc21 (stereo not drawn) [Compound 98, N-(cyclopropylmethyl)-9-methyl-6-(2-oxo-1,2-dihydro-1′H-spiro[indole-3,3′-pyrrolidin]-1′-yl)-9H-purine-8-carboxamide]
< 50	CCn1c(C(=O)NCC2CC2)nc2c(N3CCC4(CC3)C(=O)Nc3ccccc34)ncnc21 [Compound 163, N-(cyclopropylmethyl)-9-ethyl-6-(2-oxo-1,2-dihydro-1′H-spiro[indole-3,4′-piperidin]-1′-yl)-9H-purine-8-carboxamide]
50 to 250	Cn1c(C(=O)NC2CCC2)nc2c(N3CCC(n4c(=O)[nH]c5ccccc54)CC3)ncnc21 [Compound 44, N-cyclobutyl-9-methyl-6-[4-(2-oxo-2,3-dihydro-1H-benzimidazol-1-yl)piperidin-1-yl]-9H-purine-8-carboxamide]
500 to 1500	Cn1c(C(=O)NCC2CCCO2)nc2c(N3CCC4(CC3)C(=O)Nc3ccccc34)ncnc21 (stereo not drawn) [Compound 85, 9-methyl-6-(2-oxo-1,2-dihydro-1′H-spiro[indole-3,4′-piperidin]-1′-yl)-N-(tetrahydrofuran-2-ylmethyl)-9H-purine-8-carboxamide]
50 to 250	CCCNC(=O)c1nc2c(N3CCC(n4c(=O)[nH]c5ccccc54)CC3)ncnc2n1C [Compound 69, 9-methyl-6-[4-(2-oxo-2,3-dihydro-1H-benzimidazol-1-yl)piperidin-1-yl]-N-propyl-9H-purine-8-carboxamide]
500 to 1500	Cn1c(C(=O)NCC2CC2)nc2c(N3CCC4(CC3)C(=O)NCC4c3ccccc3)ncnc21 (stereo not drawn) [Compound 99, N-(cyclopropylmethyl)-9-methyl-6-(1-oxo-4-phenyl-2,8-diazaspiro[4.5]dec-8-yl)-9H-purine-8-carboxamide]
250 to 500	COc1ccccc1CNC(=O)c1nc2c(N3CCC(n4c(=O)[nH]c5ccccc54)CC3)ncnc2n1C [Compound 56, 9-methyl-N-{[2-(methyloxy)phenyl]methyl}-6-[4-(2-oxo-2,3-dihydro-1H-benzimidazol-1-yl)piperidin-1-yl]-9H-purine-8-carboxamide]
250 to 500	Cc1ccccc1CNC(=O)c1nc2c(N3CCC(n4c(=O)[nH]c5ccccc54)CC3)ncnc2n1C [Compound 57, 9-methyl-N-[(2-methylphenyl)methyl]-6-[4-(2-oxo-2,3-dihydro-1H-benzimidazol-1-yl)piperidin-1-yl]-9H-purine-8-carboxamide]
< 50	CCn1c(C(=O)NCC2CCOCC2)nc2c(N3CCC(n4c(=O)[nH]c5ccccc54)CC3)ncnc21 [Compound 156, 9-ethyl-6-[4-(2-oxo-2,3-dihydro-1H-benzimidazol-1-yl)piperidin-1-yl]-N-(tetrahydro-2H-pyran-4-ylmethyl)-9H-purine-8-carboxamide]

Continued, molecule first:

SMILES	IC50 [nM]
CCn1c(-c2ccc(C(F)(F)F)nc2)nc2c(N3CCC(n4c(=O)[nH]c5ncccc54)CC3)ncnc21 [Compound 326, 1-(1-{9-ethyl-8-[6-(trifluoromethyl)pyridin-3-yl]-9H-purin-6-yl}piperidin-4-yl)-1,3-dihydro-2H-imidazo[4,5-b]pyridin-2-one]	< 50
Cn1c(-c2ccc(C(F)(F)F)nc2)nc2c(N3CCC4(CC3)C(=O)Nc3ccccc34)ncnc21 [Compound 327, 1′-{9-methyl-8-[6-(trifluoromethyl)pyridin-3-yl]-9H-purin-6-yl}spiro[indole-3,4′-piperidin]-2(1H)-one]	< 50
Cn1cc(-c2nc3c(N4CCC5(CC4)C(=O)Nc4ccccc45)ncnc3n2C)cn1 [Compound 239, 1′-[9-methyl-8-(1-methyl-1H-pyrazol-4-yl)-9H-purin-6-yl]spiro[indole-3,4′-piperidin]-2(1H)-one]	< 50
CCn1c(-c2cnc(N(C)C)nc2)nc2c(N3CCC(n4c(=O)[nH]c5ccccc54)CC3)ncnc21 [Compound 320, 1-[1-{8-[2-(dimethylamino)pyrimidin-5-yl]-9-ethyl-9H-purin-6-yl)piperidin-4-yl)-1,3-dihydro-2H-benzimidazol-2-one]	< 50
Cc1[nH]ncc1-c1nc2c(N3CCC(n4c(=O)[nH]c5ncccc54)CC3)ncnc2n1C [Compound 394, 1-{1-[9-methyl-8-(5-methyl-1H-pyrazol-4-yl)-9H-purin-6-yl]piperidin-4-yl}-1,3-dihydro-2H-imidazo[4,5-b]pyridin-2-one]	< 50
CCn1ncc(-c2nc3c(N4CCC(n5c(=O)[nH]c6ccccc65)CC4)ncnc3n2C)c1C [Compound 281, 1-{1-[8-(1-ethyl-5-methyl-1H-pyrazol-4-yl)-9-methyl-9H-purin-6-yl]piperidin-4-yl}-1,3-dihydro-2H-benzimidazol-2-one]	< 50
Cc1ccc(CCNC(=O)c2nc3c(N4CCC(n5c(=O)[nH]c6ccccc65)CC4)ncnc3n2C)cc1 [Compound 64, 9-methyl-N-[2-(4-methylphenyl)ethyl]-6-[4-(2-oxo-2,3-dihydro-1H-benzimidazol-1-yl)piperidin-1-yl]-9H-purine-8-carboxamide]	500 to 1500
Cc1ccc(-c2nc3c(N4CCC(n5c(=O)[nH]c6ccccc65)CC4)ncnc3n2C)o1 [Compound 115, 1-{1-[9-methyl-8-(5-methylfuran-2-yl)-9H-purin-6-yl]piperidin-4-yl}-1,3-dihydro-2H-benzimidazol-2-one]	250 to 500
Cn1cc(-c2nc3c(N4CCN(S(=O)(=O)c5cccc(C#N)c5)CC4)ncnc3n2C)cn1 [Compound 382, 3-({4-[9-methyl-8-(1-methyl-1H-pyrazol-4-yl)-9H-purin-6-yl]piperazin-1-yl)sulfonyl)benzonitrile]	250 to 500
Cn1c(-c2ccoc2)nc2c(N3CCC(n4c(=O)[nH]c5ccccc54)CC3)ncnc21 [Compound 265, 1-[1-(8-furan-3-yl-9-methyl-9H-purin-6-yl)piperidin-4-yl]-1,3-dihydro-2H-benzimidazol-2-one]	50 to 250
Cn1c(-n2cnc(C(F)(F)F)c2)nc2c(N3CCC(n4c(=O)[nH]c5ccccc54)CC3)ncnc21 [Compound 165, 1-(1-{9-methyl-8-[4-(trifluoromethyl)-1H-imidazol-1-yl]-9H-purin-6-yl}piperidin-4-yl)-1,3-dihydro-2H-benzimidazol-2-one]	50 to 250
CCn1c(C(=O)NCC(C)C)nc2c(N3CCC(n4c(=O)[nH]c5ccccc54)CC3)ncnc21 [Compound 158, 9-ethyl-N-(2-methylpropyl)-6-[4-(2-oxo-2,3-dihydro-1H-benzimidazol-1-yl)piperidin-1-yl]-9H-purine-8-carboxamide]	< 50
Cn1c(-c2ccc(N)nc2)nc2c(N3CCC(n4c(=O)[nH]c5ccccc54)CC3)ncnc21 [Compound 303, 1-{1-[8-(6-aminopyridin-3-yl)-9-methyl-9H-purin-6-yl]piperidin-4-yl}-1,3-dihydro-2H-benzimidazol-2-one]	< 50
Cn1cc(-c2nc3c(N4CCC(n5c(=O)[nH]c6ncccc65)CC4)ncnc3n2C)cn1 [Compound 269, 1-{1-[9-methyl-8-(1-methyl-1H-pyrazol-4-yl)-9H-purin-6-yl]piperidin-4-yl}-1,3-dihydro-2H-imidazo[4,5-b]pyridin-2-one]	< 50
CCn1c(-c2cccnc2)nc2c(N3CCC(n4c(=O)[nH]c5ccccc54)CC3)ncnc21 [Compound 296, 1-[1-(9-ethyl-8-pyridin-3-yl-9H-purin-6-yl)piperidin-4-yl]-1,3-dihydro-2H-benzimidazol-2-one]	< 50
Cc1cncc(-c2nc3c(N4CCC(n5c(=O)[nH]c6ccccc65)CC4)ncnc3n2C)c1 [Compound 282, 1-{1-[9-methyl-8-(5-methylpyridin-3-yl)-9H-purin-6-yl]piperidin-4-yl}-1,3-dihydro-2H-benzimidazol-2-one]	< 50
Cn1cncc1-c1nc2c(N3CCC(n4c(=O)[nH]c5ccccc54)CC3)ncnc2n1C [Compound 288, 1-{1-[9-methyl-8-(1-methyl-1H-imidazol-5-yl)-9H-purin-6-yl]piperidin-4-yl}-1,3-dihydro-2H-benzimidazol-2-one]	< 50
CCNC(=O)c1nc2c(N3CCC(n4c(=O)[nH]c5ccccc54)CC3)ncnc2n1CC [Compound 192, N,9-diethyl-6-[4-(2-oxo-2,3-dihydro-1H-benzimidazol-1-yl)piperidin-1-yl]-9H-purine-8-carboxamide]	50 to 250
CCn1c(-c2cncnc2)nc2c(N3CCC4(CC3)C(=O)Nc3ccccc34)ncnc21 [Compound 292, 1′-(9-ethyl-8-pyrimidin-5-yl-9H-purin-6-yl)spiro[indole-3,4′-piperidin]-2(1H)-one]	< 50
Cn1cc(-c2nc3c(N4CCN(S(=O)(=O)c5ccccc5Cl)CC4)ncnc3n2C)cn1 [Compound 375, 6-{4-[(2-chlorophenyl)sulfonyl]piperazin-1-yl}-9-methyl-8-(1-methyl-1H-pyrazol-4-yl)-9H-purine]	250 to 500
Cn1cc(-c2nc3c(N4CCN(S(=O)(=O)c5ccc(Cl)cc5)CC4)ncnc3n2C)cn1 [Compound 374, 6-{4-[(4-chlorophenyl)sulfonyl]piperazin-1-yl)-9-methyl-8-(1-methyl-1H-pyrazol-4-yl)-9H-purine]	500 to 1500
CCn1c(C(=O)NCC2(O)CC2)nc2c(N3CCC(n4c(=O)[nH]c5ccccc54)CC3)ncnc21 [Compound 188, 9-ethyl-N-[(1-hydroxycyclopropyl)methyl]-6-[4-(2-oxo-2,3-dihydro-1H-benzimidazol-1-yl)piperidin-1-yl]-9H-purine-8-carboxamide]	< 50
Cn1c(-n2ccnc2)nc2c(N3CCC(n4c(=O)[nH]c5ccccc54)CC3)ncnc21 [Compound 124, 1-{1-[8-(1H-Imidazol-1-yl)-9-methyl-9H-purin-6-yl]piperidin-4-yl}-1,3-dihydro-2H-benzimidazol-2-one]	50 to 250
